Data from ChEMBL document CHEMBL5465560, “Selectivity Literature for EUbOPEN Chemogenomic Library” (2024).

How the values were obtained:
[1] = biological target: Serine/threonine-protein kinase VRK2 (Homo sapiens) (UniProt Q86Y07); assay: Selectivity interaction (Ambit KINOMEscan and KiNATiv profiling in Jurkat cells) EUB0000090b VRK2; type: cell-based; conditions: at 1 µM
[2] = system: Proto-oncogene tyrosine-protein kinase receptor Ret (Homo sapiens), P07949 [V804L]; assay: (§1) Selectivity interaction (KinomeScan (DiscoverX)) EUB0000618a RET; conditions: at 10 µM
[3] = system: Proto-oncogene tyrosine-protein kinase receptor Ret (Homo sapiens), P07949 [V804M]; assay: as §1; conditions: at 10 µM
Chain of Proto-oncogene tyrosine-protein kinase receptor Ret (Homo sapiens), P07949 [V804M] (P07949 whole entry V804M): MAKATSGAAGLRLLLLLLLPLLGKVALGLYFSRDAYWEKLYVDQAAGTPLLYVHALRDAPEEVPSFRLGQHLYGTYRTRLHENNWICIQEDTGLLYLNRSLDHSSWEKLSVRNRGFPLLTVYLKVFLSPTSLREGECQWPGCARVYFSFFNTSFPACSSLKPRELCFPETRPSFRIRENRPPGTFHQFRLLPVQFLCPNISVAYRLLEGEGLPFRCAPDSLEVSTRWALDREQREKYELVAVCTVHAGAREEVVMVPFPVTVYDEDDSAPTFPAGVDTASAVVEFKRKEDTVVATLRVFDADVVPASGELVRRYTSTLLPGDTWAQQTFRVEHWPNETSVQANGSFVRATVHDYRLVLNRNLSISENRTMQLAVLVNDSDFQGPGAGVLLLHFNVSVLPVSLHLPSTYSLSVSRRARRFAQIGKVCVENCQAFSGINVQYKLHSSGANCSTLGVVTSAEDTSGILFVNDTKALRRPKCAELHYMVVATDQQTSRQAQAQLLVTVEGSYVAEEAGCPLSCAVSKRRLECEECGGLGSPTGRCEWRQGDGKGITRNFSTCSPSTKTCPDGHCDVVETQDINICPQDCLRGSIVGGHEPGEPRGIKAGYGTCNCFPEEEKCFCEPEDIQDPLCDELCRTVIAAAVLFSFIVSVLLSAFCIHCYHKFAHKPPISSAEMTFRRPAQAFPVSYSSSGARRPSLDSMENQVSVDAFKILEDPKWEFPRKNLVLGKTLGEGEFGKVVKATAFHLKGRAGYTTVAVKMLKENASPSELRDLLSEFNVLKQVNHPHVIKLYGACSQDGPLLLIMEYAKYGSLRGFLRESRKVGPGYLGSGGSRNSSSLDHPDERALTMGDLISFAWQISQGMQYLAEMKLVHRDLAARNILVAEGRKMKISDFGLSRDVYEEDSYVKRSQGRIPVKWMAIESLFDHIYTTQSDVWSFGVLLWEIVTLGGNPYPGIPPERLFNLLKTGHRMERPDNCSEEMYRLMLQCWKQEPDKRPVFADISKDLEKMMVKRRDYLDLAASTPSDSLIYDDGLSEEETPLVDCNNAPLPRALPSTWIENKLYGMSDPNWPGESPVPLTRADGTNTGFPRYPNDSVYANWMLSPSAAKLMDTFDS

[4] = biological target: Proto-oncogene tyrosine-protein kinase receptor Ret (Homo sapiens, UniProt P07949); assay: as §1; conditions: at 10 µM
Chain of Proto-oncogene tyrosine-protein kinase receptor Ret (P07949 whole entry): as the sequence (P07949 whole entry V804M) above, with M804V counted along it

[5] = biological target: RAC-beta serine/threonine-protein kinase (Homo sapiens) (UniProt P31751); assay: Selectivity interaction (KinomeScan (DiscoverX)) EUB0000607a AKT2; conditions: at 10 µM
[6] = biological target: Phosphatidylinositol 4-kinase beta (Homo sapiens, UniProt Q9UBF8); assay: Selectivity interaction (KinomeScan (DiscoverX)) EUB0000607a PI4KB; conditions: at 10 µM
Chain of Phosphatidylinositol 4-kinase beta (Q9UBF8 2-816 limits assumed): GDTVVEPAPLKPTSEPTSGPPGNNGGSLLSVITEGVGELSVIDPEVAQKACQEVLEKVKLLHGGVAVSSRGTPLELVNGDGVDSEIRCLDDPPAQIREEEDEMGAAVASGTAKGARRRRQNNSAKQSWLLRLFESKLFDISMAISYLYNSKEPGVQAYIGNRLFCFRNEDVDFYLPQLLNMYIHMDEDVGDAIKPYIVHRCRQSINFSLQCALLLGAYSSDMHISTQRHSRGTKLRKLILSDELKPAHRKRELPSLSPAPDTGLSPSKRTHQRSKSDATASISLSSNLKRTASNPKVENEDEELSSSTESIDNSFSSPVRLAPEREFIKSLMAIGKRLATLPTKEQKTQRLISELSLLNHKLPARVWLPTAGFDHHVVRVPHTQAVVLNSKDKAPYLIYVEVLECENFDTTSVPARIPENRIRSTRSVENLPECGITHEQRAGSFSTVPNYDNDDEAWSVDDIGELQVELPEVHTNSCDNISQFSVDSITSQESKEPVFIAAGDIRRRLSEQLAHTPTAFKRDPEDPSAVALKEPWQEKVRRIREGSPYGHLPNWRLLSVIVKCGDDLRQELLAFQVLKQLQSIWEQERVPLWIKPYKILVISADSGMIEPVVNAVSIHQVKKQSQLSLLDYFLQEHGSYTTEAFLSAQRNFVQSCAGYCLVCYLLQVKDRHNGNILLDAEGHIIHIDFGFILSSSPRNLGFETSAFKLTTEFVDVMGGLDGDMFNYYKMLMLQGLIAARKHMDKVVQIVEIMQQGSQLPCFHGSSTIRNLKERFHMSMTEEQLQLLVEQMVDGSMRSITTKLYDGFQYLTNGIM

[7] = biological target: Rho-associated protein kinase 1 (Homo sapiens) (UniProt Q13464); assay: Selectivity interaction (KinomeScan (DiscoverX)) EUB0000607a ROCK1; conditions: at 10 µM
Chain of Rho-associated protein kinase 1 (Homo sapiens) (Q13464 2-1354 limits assumed): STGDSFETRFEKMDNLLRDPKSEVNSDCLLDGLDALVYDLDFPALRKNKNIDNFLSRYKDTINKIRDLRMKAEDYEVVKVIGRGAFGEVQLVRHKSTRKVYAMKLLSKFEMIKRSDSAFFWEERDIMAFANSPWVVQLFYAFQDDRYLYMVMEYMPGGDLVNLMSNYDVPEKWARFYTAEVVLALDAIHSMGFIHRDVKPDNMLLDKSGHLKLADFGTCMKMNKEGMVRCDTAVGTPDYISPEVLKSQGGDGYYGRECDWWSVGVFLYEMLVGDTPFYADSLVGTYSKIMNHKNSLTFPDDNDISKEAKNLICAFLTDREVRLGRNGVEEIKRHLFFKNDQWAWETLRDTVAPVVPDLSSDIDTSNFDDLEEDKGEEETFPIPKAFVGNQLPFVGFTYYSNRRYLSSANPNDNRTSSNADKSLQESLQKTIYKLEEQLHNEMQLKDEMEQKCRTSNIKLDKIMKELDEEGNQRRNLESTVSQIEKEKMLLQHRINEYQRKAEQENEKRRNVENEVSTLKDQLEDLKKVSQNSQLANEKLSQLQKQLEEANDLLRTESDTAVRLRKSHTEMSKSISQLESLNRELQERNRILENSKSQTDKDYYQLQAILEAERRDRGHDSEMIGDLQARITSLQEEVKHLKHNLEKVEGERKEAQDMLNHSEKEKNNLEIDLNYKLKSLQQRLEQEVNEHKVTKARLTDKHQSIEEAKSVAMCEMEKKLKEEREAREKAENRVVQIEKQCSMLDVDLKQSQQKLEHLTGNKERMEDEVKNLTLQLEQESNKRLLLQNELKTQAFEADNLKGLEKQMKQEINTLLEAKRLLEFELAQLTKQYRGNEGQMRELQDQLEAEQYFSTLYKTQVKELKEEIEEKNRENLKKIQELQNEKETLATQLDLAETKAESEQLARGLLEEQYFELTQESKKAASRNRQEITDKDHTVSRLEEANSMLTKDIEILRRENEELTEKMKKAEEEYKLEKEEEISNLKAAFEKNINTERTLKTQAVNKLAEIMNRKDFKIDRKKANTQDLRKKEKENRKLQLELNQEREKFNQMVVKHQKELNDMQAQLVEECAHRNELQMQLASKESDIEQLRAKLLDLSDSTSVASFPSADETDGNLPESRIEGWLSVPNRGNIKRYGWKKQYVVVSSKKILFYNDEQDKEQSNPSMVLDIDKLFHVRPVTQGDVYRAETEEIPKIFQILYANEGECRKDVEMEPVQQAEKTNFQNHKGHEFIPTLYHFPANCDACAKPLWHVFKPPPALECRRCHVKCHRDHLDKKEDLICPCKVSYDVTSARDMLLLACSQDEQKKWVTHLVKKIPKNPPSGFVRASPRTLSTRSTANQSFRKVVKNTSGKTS

[8] = biological target: Calcium/calmodulin-dependent protein kinase type II subunit delta (Homo sapiens) (UniProt Q13557); assay: Selectivity interaction (ActivX KiNativ screen (ex vivo kinase selectivity in human PBMCs)) EUB0001619a CAMK2D; type: cell-based; conditions: PBMC, at 1 µM
Chain of Calcium/calmodulin-dependent protein kinase type II subunit delta (Homo sapiens) (Q13557 whole entry): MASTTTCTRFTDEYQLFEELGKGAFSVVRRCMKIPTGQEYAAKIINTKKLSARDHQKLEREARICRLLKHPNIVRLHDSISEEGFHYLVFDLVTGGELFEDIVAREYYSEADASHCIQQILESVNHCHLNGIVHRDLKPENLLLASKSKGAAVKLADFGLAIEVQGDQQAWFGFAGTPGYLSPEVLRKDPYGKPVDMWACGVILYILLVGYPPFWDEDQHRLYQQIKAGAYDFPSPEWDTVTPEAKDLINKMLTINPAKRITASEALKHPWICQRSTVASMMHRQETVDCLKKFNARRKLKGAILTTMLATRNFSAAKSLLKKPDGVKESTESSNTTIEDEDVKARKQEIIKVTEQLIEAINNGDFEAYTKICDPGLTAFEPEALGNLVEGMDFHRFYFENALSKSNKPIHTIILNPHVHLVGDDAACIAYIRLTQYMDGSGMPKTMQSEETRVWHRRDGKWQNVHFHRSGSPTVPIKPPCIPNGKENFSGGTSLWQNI

[9] = biological target: Cyclin-dependent kinase 2 (Homo sapiens, UniProt P24941); assay: Selectivity interaction (KinomeScan (DiscoverX)) EUB0001619a CDK2; conditions: at 1 µM
[10] = biological target: T1, Histone-lysine N-methyltransferase NSD3 (Homo sapiens) (UniProt Q9BZ95); conditions: at 10 µM
T1 sequence (whole entry): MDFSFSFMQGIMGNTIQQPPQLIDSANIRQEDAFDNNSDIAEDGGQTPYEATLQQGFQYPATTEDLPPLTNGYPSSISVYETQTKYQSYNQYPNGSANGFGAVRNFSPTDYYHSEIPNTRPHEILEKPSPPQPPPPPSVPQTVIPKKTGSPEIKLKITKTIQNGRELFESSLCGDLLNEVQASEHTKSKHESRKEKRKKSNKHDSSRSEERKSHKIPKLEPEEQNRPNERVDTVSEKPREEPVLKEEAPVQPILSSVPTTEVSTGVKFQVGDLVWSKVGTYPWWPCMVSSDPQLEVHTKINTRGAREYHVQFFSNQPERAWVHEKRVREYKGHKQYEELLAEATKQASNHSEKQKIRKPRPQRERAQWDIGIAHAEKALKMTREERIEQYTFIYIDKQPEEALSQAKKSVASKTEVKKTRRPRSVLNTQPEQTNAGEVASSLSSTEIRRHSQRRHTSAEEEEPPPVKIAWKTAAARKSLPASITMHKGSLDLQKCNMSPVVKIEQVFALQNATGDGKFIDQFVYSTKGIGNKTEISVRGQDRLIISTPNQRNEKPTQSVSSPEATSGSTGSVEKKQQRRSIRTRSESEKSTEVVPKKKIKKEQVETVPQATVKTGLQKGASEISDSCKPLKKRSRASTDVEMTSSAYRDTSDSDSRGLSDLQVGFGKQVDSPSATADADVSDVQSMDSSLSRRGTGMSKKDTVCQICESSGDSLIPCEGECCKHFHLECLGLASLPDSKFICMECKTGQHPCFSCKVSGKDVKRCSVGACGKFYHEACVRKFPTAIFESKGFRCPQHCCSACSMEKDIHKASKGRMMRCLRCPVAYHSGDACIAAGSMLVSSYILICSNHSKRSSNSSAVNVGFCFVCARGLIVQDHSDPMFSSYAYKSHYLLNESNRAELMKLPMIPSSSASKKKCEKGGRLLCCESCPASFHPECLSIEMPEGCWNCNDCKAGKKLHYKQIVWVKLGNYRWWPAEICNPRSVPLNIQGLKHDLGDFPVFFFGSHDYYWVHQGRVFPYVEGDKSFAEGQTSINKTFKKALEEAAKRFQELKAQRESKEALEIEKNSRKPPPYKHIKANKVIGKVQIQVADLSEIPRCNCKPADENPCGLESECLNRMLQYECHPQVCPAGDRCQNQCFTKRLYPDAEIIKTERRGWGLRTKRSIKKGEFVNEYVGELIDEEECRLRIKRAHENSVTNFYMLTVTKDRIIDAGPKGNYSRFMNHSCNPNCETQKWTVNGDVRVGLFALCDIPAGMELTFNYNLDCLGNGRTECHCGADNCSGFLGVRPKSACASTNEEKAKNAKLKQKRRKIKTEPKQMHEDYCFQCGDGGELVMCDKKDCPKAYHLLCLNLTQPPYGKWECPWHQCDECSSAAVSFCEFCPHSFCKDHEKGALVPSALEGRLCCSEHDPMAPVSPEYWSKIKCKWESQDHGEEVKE

[11] = biological target: Ribosomal protein S6 kinase alpha-2 (Homo sapiens) (UniProt Q15349); conditions: at 10 µM
Chain of Ribosomal protein S6 kinase alpha-2 (Homo sapiens) (Q15349 whole entry): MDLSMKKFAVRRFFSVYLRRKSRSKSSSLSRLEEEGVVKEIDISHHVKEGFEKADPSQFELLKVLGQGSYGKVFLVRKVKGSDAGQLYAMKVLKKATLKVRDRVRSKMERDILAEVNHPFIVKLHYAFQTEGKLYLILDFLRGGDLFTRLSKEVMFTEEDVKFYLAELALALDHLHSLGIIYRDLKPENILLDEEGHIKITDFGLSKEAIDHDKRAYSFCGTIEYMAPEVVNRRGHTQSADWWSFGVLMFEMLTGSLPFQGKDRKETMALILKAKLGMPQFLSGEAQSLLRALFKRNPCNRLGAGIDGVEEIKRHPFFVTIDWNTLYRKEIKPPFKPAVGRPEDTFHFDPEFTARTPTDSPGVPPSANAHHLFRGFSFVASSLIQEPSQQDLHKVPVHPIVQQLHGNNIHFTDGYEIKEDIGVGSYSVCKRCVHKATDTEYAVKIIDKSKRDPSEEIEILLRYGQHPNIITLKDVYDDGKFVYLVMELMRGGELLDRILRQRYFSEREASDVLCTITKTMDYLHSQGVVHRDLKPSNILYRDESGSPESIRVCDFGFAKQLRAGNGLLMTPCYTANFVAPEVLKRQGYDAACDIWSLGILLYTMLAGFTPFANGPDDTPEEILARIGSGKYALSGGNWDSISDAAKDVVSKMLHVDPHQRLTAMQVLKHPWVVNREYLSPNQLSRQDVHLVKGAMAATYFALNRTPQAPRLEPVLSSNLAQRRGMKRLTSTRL

[12] = biological target: T2, Uncharacterized serine/threonine-protein kinase SBK3 (Homo sapiens) (UniProt P0C264); conditions: at 10 µM
T2 sequence (whole entry): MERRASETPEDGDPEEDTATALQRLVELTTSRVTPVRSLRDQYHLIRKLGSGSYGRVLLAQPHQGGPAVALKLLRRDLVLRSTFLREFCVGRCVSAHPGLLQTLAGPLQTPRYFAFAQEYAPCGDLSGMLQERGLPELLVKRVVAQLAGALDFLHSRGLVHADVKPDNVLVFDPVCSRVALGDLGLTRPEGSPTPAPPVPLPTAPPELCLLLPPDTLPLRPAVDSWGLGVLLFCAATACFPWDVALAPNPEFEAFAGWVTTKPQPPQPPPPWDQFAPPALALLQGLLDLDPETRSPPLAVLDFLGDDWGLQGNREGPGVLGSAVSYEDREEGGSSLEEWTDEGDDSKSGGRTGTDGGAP

[13] = biological target: T3, Mitogen-activated protein kinase 13 (Homo sapiens) (UniProt O15264); assay: Selectivity interaction (Kinase panel (Invitrogen)) EUB0000639a MAPK13; conditions: at 200 nM
T3 sequence (whole entry): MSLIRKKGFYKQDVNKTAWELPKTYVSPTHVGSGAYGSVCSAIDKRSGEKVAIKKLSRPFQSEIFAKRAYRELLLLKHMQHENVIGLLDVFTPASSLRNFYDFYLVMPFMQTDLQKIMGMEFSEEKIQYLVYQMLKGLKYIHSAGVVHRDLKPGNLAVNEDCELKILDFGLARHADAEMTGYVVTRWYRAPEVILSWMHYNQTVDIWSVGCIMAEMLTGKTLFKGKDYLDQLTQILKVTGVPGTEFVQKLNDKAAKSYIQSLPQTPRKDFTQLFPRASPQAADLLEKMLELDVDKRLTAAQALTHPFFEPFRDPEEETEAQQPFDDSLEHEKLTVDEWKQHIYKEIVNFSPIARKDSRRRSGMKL

[14] = biological target: Homeodomain-interacting protein kinase 3 (Homo sapiens, UniProt Q9H422); assay: Selectivity interaction (Kinase panel (Z-LYTE Assay)) EUB0001632a HIPK3; conditions: at 10 µM

Chain of Serine/threonine-protein kinase VRK2 (Homo sapiens) (Q86Y07 whole entry): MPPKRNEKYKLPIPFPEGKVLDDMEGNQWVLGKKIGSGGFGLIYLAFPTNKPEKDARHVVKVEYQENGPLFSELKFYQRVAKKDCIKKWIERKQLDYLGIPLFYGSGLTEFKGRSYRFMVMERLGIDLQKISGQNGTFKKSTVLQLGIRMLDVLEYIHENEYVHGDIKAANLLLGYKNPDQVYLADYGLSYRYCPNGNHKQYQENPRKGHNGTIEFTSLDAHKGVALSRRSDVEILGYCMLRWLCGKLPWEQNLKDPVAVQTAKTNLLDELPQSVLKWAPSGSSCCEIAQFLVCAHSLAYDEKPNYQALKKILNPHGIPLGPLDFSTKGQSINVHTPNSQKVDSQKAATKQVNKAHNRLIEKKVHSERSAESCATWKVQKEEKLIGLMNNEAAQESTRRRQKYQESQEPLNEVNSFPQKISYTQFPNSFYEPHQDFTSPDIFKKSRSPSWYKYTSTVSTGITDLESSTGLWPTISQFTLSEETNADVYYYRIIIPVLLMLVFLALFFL

Structure (SMILES): CN(C)C/C=C/C(=O)Nc1ccc(C(=O)N2CCCC(Nc3ncc(Cl)c(-c4c[nH]c5ccccc45)n3)C2)cc1 (centres undefined)
- % of control [1]: 97%

Structure (SMILES): O[C@H]1CC[C@H](Nc2ncc3nc(Nc4c(F)cc(F)cc4F)n([C@H]4CCOC4)c3n2)CC1
- % of control [2]: 100%
- % of control [3]: 96%
- % of control [4]: 100%

Structure (SMILES): CNC(=O)Nc1ccc(-c2nc(N3CC4CCC(C3)O4)c3cnn(C4CCC5(CC4)OCCO5)c3n2)cc1
- % of control [5]: 100%
- % of control [6]: 100%
- % of control [7]: 100%

Structure (SMILES): N#Cc1cccc(-c2c[nH]c3ncnc(N4CCOCC4)c23)c1
- % of inhibition [8]: -38%
- % of control [9]: 89%

Structure (SMILES): CNCCN1CCC(c2cc(CN(C)C(=O)c3cccc(Oc4ccccc4)c3)ccn2)CC1
- % activity [10]: > 90%

Structure (SMILES): Cc1cc([C@@H](C)Nc2ccccc2C(=O)O)c2nc(N3CCOCC3)cc(=O)n2c1 [AZD-6482]
- % of control [11]: 97%
- % of control [12]: 100%

Structure (SMILES): CC[C@@H]1[C@H](F)C(=O)N[C@@H]1COc1nccc2cc(C(N)=O)c(OC)cc12 [ZIMLOVISERTIB]
- % of inhibition [13]: 6.06%

Structure (SMILES): Cn1cc(-n2cnc3c(NCc4nc5cc(Cl)c(Cl)cc5[nH]4)nc(N4CCOCC4)nc32)cn1
- % of control [14]: 0.256%
